# According to PubChem BioAssay AID1347409 (Pan Lab, Icahn School of Medicine at Mount Sinai, 2020):
# Inconclusive results are not listed. Activity calls are given as the source filed them.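 The calls were made as follows: active = EC50 at or below 10 µM; inconclusive = EC50 above 10 and up to 20 µM; inactive = EC50 above 20 µM.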
# Test system: MV4-11 apoptosis, Annexin V flow cytometry, 48 h
# Test: MV4-11 leukemia cell apoptotic death – Annexin V, flow cytometry, dose response (AID 1347409)
row,SMILES,EC50
1,Cc1ccc([C@@H]2Nc3c(ccc(C(=O)O)c3C)[C@@H]3C=CC[C@@H]32)cc1,94.8 µM (inactive)
2,CCOc1cccc2c1N[C@@H](c1ccc(C(=O)O)cc1)[C@H]1CC=C[C@@H]21,113 µM (inactive)
3,CCNc1ccc(Br)cc(C(=O)/C=C/c2c(Cl)cccc2Cl)c1=O,4.4 µM
4,NCCCSc1nc2c(c(=O)n1Cc1ccccc1)C1(CCCCC1)Cc1ccccc1-2,2.4 µM
5,COc1ccc(C=C2C(=O)N(Cc3ccco3)C(=O)N(C(C)C)C2=O)cc1,60 µM (inactive)
6,CCOC(=O)c1c(NC(=O)CCC(=O)O)sc(C)c1-c1ccc(CC(C)C)cc1,33.6 µM (inactive)
7,Cc1ccc(NC(=O)c2ccc(Cl)cc2Cl)c(S(=O)(=O)O)c1,90.1 µM (inactive)
8,CCCCCCCCCOc1ccc(C#CC(=O)O)cc1,32.4 µM (inactive)
9,CCOc1ccc2nc3cc(NC(=O)c4ccco4)ccc3c(N)c2c1,1.3 µM
10,CN(CCC(=O)C=Cc1ccc(Cl)c(Cl)c1)CCc1ccc2c(c1)OCO2,5.2 µM
11,Cc1ccc2c(c1)-c1c(c(C(=O)N3CCN(c4cc(C)ccc4C)CC3)nn1C)CS2,68.2 µM (inactive)
